# Data published in patent US10052331B2, “3-(3H-imidazo[4,5-C]pyridin-2-yl)-1H-pyrazolo[3,4-C]pyridine and therapeutic uses thereof” (Samumed, LLC, priority 2014, dated 2018).
# Legend:
# [1] = tested on: Wnt activity (Wnt-responsive Sp5 promoter-luciferase reporter in SW480 cells); test: Wnt activity screening assay: Sp5-Luc reporter gene in SW480 colon carcinoma cells; assay type: cell-based; conditions: Homo sapiens
# Method in brief: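 IC50 values come from variable-slope four-parameter fits of luciferase signal normalized to DMSO wells. Stable Sp5-Luc reporter SW480 colon carcinoma cells were exposed to compounds in a 3-fold dilution series (source plates from 10 mM stock) for forty-two hours at 37 °C.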
# [2] = tested on: primary human fibroblasts derived from IPF patients (LL29 cells); test: Inhibition of fibrotic process: αSMA staining in TGF-β1-treated primary human fibroblasts from IPF patients (LL29 cells); assay type: cell-based; conditions: Fibroblast, 96 h, LL29 cells treated with TGF-β1 (20 ng/mL), 4 days, 11-point dose-response from 10 μM to 1.87 nM, read-out: Inhibition of fibrosis EC50
# Description: The above synthesized compounds were screened using primary human fibroblasts (derived from IPF patients) treated with TGF-β1 to determine their ability to inhibit the fibrotic process.
# Primary human fibroblasts derived from IPF patients (LL29 cells) [^1Xiaoqiu Liu, et. al., “Fibrotic Lung Fibroblasts Show Blunted Inhibition by cAMP Due to Deficient cAMP Response Element-Binding Protein Phosphorylation”, Journal of Pharmacology and Experimental Therapeutics (2005), 315(2), 678-687; ^2Watts, K. L., et. al., “RhoA signaling modulates cyclin D1 expression in human lung fibroblasts; implications for idiopathic pulmonary fibrosis”, Respiratory Research (2006), 7(1), 88] were obtained from American Type Culture Collection (ATCC) and expanded in F12 medium supplemented with 15% Fetal Bovine Serum and Penicillin/Streptomycin.
# Each compound was dissolved in DMSO as a 10 mM stock and used to prepare compound source plates. Serial dilution (1:2, 11-point dose-response curves from 10 μM to 1.87 nM) and compound transfer was performed using the ECHO 550 (Labcyte, Sunnyvale, Calif.) into 384-well clear bottom assay plates (Greiner Bio-One) with appropriate DMSO backfill for a final DMSO concentration of 0.1%. LL29 cells were plated at 1,500 cells/well in 80 μl/well F12 medium supplemented with 1% Fetal Bovine Serum. One hour after addition of the cells, TGF-β1 (Peprotech; 20 ng/mL) was added to the plates to induce fibrosis (ref. 1 and 2 above). Wells treated with TGF-β1 and containing DMSO were used as controls. Cells were incubated at 37° C. and 5% CO2 for 4 days. Following incubation for 4 days, SYTOX green nucleic acid stain (Life Technologies [Thermo Fisher Scientific]) was added to the wells at a final concentration of 1 uM and incubated at room temperature for 30 min. Cells were then fixed using 4% formaldehyde (Electron Microscopy Sciences), washed 3 times with PBS followed by blocking and permeabilization using 3% Bovine Serum Albumin (BSA; Sigma) and 0.3% Triton X-100 (Sigma) in PBS. Cells were then stained with antibody specific to α-smooth muscle actin (αSMA; Abcam) (ref. 1 and 2 above) in 3% Bovine Serum Albumin (BSA; Sigma) and 0.3% Triton X-100 (Sigma) in PBS, and incubated overnight at 4° C. Cells were then washed 3 times with PBS, followed by incubation with Alexa Flor-647 conjugated secondary antibody (Life Technologies [Thermo Fisher Scientific]) and DAPI at room temperature for 1 hour. Cells were then washed 3 times with PBS and plates were sealed for imaging. αSMA staining was imaged by excitation at 630 nm and emission at 665 nm and quantified using the Compartmental Analysis program on the CellInsight CX5 (Thermo Scientific). Dead or apoptotic cells were excluded from analysis based on positive SYTOX green staining. % of total cells positive for αSMA were counted in each well and normalized to the average of 11 wells treated with TGF-β1 on the same plate using Dotmatics' Studies Software. The normalized averages (fold change over untreated) of 3 replicate wells for each compound concentration were used to create dose-responses curves and EC50 values were calculated using non-linear regression curve fit in the Dotmatics' Studies Software. The EC50 values are reported.
IC50 [1],SMILES,EC50 [2]
261 nM,"c1cc(-c2cncc3[nH]c(-c4n[nH]c5cnc(-c6cncc(CNCC7CCCC7)c6)cc45)nc23)co1 [Compound 284, 1-Cyclopentyl-N-((5-(3-(7-(furan-3-yl)-3H-imidazo[4,5-c]pyridin-2-yl)-1H-pyrazolo[3,4-c]pyridin-5-yl)pyridin-3-yl)methyl)methanamine]",908 nM
319 nM,"CN(C)c1cncc(-c2cc3c(-c4nc5c(-c6cccs6)cncc5[nH]4)n[nH]c3cn2)c1 [Compound 293, N,N-Dimethyl-5-(3-(7-(thiophen-2-yl)-3H-imidazo[4,5-c]pyridin-2-yl)-1H-pyrazolo[3,4-c]pyridin-5-yl)pyridin-3-amine]",≤ 9 nM
588 nM,"CN(C)Cc1cncc(-c2cc3c(-c4nc5c(-c6cccs6)cncc5[nH]4)n[nH]c3cn2)c1 [Compound 299, N,N-Dimethyl-1-(5-(3-(7-(thiophen-2-yl)-3H-imidazo[4,5-c]pyridin-2-yl)-1H-pyrazolo[3,4-c]pyridin-5-yl)pyridin-3-yl)methanamine]",≤ 9 nM
35.1 nM,"O=C(Nc1cncc(-c2cc3c(-c4nc5c(-c6cccs6)cncc5[nH]4)n[nH]c3cn2)c1)C1CC1 [Compound 305, N-(5-(3-(7-(Thiophen-2-yl)-3H-imidazo[4,5-c]pyridin-2-yl)-1H-pyrazolo[3,4-c]pyridin-5-yl)pyridin-3-yl)cyclopropanecarboxamide]",> 10000 nM
70.5 nM,"FC1(F)CCN(Cc2cncc(-c3cc4c(-c5nc6c(-c7cccs7)cncc6[nH]5)n[nH]c4cn3)c2)C1 [Compound 311, 5-(5-((3,3-Difluoropyrrolidin-1-yl)methyl)pyridin-3-yl)-3-(7-(thiophen-2-yl)-3H-imidazo[4,5-c]pyridin-2-yl)-1H-pyrazolo[3,4-c]pyridine]",254 nM
772 nM,"Fc1ccc(-c2cncc3[nH]c(-c4n[nH]c5cnc(-c6cncc(CN7CCCC7)c6)cc45)nc23)s1 [Compound 326, 3-(7-(5-Fluorothiophen-2-yl)-3H-imidazo[4,5-c]pyridin-2-yl)-5-(5-(pyrrolidin-1-ylmethyl)pyridin-3-yl)-1H-pyrazolo[3,4-c]pyridine]",≤ 9 nM
32.8 nM,"O=C(Nc1cncc(-c2cc3c(-c4nc5c(-c6ccc(F)s6)cncc5[nH]4)n[nH]c3cn2)c1)C1CCC1 [Compound 332, N-(5-(3-(7-(5-Fluorothiophen-2-yl)-3H-imidazo[4,5-c]pyridin-2-yl)-1H-pyrazolo[3,4-c]pyridin-5-yl)pyridin-3-yl)cyclobutanecarboxamide]",1050 nM
25.4 nM,"CCNCc1cncc(-c2cc3c(-c4nc5c(-c6ccc(C)s6)cncc5[nH]4)n[nH]c3cn2)c1 [Compound 344, N-((5-(3-(7-(5-Methylthiophen-2-yl)-3H-imidazo[4,5-c]pyridin-2-yl)-1H-pyrazolo[3,4-c]pyridin-5-yl)pyridin-3-yl)methyl)ethanamine]",60 nM
17 nM,"Cc1ccc(-c2cncc3[nH]c(-c4n[nH]c5cnc(-c6cncc(NC(=O)C(C)(C)C)c6)cc45)nc23)s1 [Compound 346, N-(5-(3-(7-(5-Methylthiophen-2-yl)-3H-imidazo[4,5-c]pyridin-2-yl)-1H-pyrazolo[3,4-c]pyridin-5-yl)pyridin-3-yl)pivalamide]",30 nM
7.5 nM,"Cc1ccc(-c2cncc3[nH]c(-c4n[nH]c5cnc(-c6cncc(NC(=O)C(C)C)c6)cc45)nc23)s1 [Compound 347, N-(5-(3-(7-(5-Methylthiophen-2-yl)-3H-imidazo[4,5-c]pyridin-2-yl)-1H-pyrazolo[3,4-c]pyridin-5-yl)pyridin-3-yl)isobutyramide]",≤ 9 nM
1040 nM,"Cc1ccc(-c2cncc3[nH]c(-c4n[nH]c5cnc(-c6cncc(CN7CCCCC7)c6)cc45)nc23)s1 [Compound 353, 3-(7-(5-Methylthiophen-2-yl)-3H-imidazo[4,5-c]pyridin-2-yl)-5-(5-(piperidin-1-ylmethyl)pyridin-3-yl)-1H-pyrazolo[3,4-c]pyridine]",251 nM
